{"source": "patent US10022326B2", "about": "“Liposomal compositions of epoxyketone-based proteasome inhibitors” (ONYX THERAPEUTICS, INC., priority 2012, dated 2018)", "target": "T1, chymotrypsin-like activity of the proteasome (Mus musculus, UniProt O55234)", "T1 construct": "measurement of proteasome activity in whole blood (primarily erythrocytes); from tissue; host or cells: whole blood (primarily erythrocytes), adrenal, liver and heart of BALB/C mice", "T1 sequence (O55234 60-264)": "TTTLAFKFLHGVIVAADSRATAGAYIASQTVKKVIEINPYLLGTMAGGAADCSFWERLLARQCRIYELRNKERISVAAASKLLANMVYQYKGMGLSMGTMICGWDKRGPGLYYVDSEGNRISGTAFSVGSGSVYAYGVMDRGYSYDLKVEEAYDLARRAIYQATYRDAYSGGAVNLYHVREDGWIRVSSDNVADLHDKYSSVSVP", "assay": "Pharmacodynamic response: proteasome activity in whole blood, adrenal, liver and heart (LLVY-AMC substrate)", "type": "in vivo, BALB/C mice", "details": "mice, single i.v. dose, whole blood (primarily erythrocytes), up to 24 hours", "method": "The pharmacodynamic response of carfilzomib formulated in SBE-B-CD (CFZ SBE-B-CD) (using a non-liposomal, injectable composition of carfilzomib formulated in 10% sulfobutylether beta cyclodextrin (SBE-B-CD), 10 mM Citrate, pH 3.5 (see, e.g., U.S. Patent Publication Nos. 2011/0236428)), empty liposomes (Composition D), liposomes comprising CFZ (L-CFZ, Composition C), and pegylated liposomes comprising (pL-CFZ, Composition E) was evaluated in BALB/C mice following a single intravenous bolus administration.\nThe mice (three mice per time point) were administered a dose of 10 mg/kg in a dose volume of 5 mL/kg. […] The pharmacodynamic response was determined by measurement of proteasome activity in whole blood (primarily erythrocytes) (see FIG. 2A), adrenal (see FIG. 2B), liver (see FIG. 2C), and heart (see FIG. 2D), using a fluorogenic substrate (LLVY-AMC [Leu-Leu-Val-Tyr-AMC {AMC=7-amido 4-methylcoumarin}]; as described by Lightcap E S, McCormack T A, Pien C S, et al., Clin. Chem. 46:673-683 (2000)) to quantitate the chymotrypsin-like activity of the proteasome. […] Three tissue samples were evaluated per time point for each tissue from each mouse.\nThe pharmacodynamic response of liposomal compositions comprising liposomes comprising an aqueous core loaded with CFZ complexed with SBE-B-CD was evaluated in BALB/C mice following a single intravenous bolus administration. […]"}
{"smiles": "CC(C)C[C@H](NC(=O)[C@H](CCc1ccccc1)NC(=O)CN1CCOCC1)C(=O)N[C@@H](Cc1ccccc1)C(=O)N[C@@H](CC(C)C)C(=O)[C@@]1(C)CO1", "note": "[carfilzomib]", "values": [{"measurement": "recovery of proteasome activity in blood", "value": "no recovery"}]}
